# Target: CDK2 (UniProt P24941)
# Assay: Enzyme Assay
# Conditions: concentration not given here
row,inhibition [%],SMILES
1,70,Cc1ccc(-c2n[nH]c3ccc(NS(=O)(=O)c4ccccc4S(C)(=O)=O)cc23)cc1F
2,73,CS(=O)(=O)c1ccccc1S(=O)(=O)Nc1ccc2[nH]nc(-c3ccc(CO)cc3)c2c1
3,87,CS(=O)(=O)c1ccc(F)cc1S(=O)(=O)Nc1ccc2[nH]nc(-c3ccccc3)c2c1
4,68,O=S(=O)(Nc1ccc2[nH]nc(-c3ccccc3)c2c1)c1cc(F)cc(F)c1
5,76,CS(=O)(=O)c1ccccc1S(=O)(=O)Nc1ccc2[nH]nc(-c3ccco3)c2c1
6,68,COc1cccc(S(=O)(=O)Nc2ccc3[nH]nc(-c4ccccc4)c3c2)c1
7,81,CS(=O)(=O)c1ccccc1S(=O)(=O)Nc1ccc2[nH]nc(-c3cccc(C(F)(F)F)c3)c2c1
8,0,CS(=O)(=O)c1ccccc1S(=O)(=O)Nc1ccc2[nH]nc(-c3ccc(-c4ccccc4)c(F)c3)c2c1
9,99,O=S(=O)(Nc1ccc2[nH]nc(-c3ccccc3)c2c1)c1cccc2cccnc12
10,50,CS(=O)(=O)c1ccc(S(=O)(=O)Nc2ccc3[nH]nc(-c4ccccc4)c3c2)cc1
11,55,CS(=O)(=O)c1ccccc1S(=O)(=O)Nc1ccc2[nH]nc(-c3ccc(Cl)s3)c2c1
12,80,CS(=O)(=O)c1ccccc1S(=O)(=O)Nc1ccc2[nH]nc(-c3cccc(Cl)c3)c2c1
13,0,CS(=O)(=O)c1ccccc1S(=O)(=O)Nc1ccc2[nH]nc(-c3cc4cccnc4[nH]3)c2c1
14,79,Cc1cc(C)c(S(=O)(=O)Nc2ccc3[nH]nc(-c4ccccc4)c3c2)c(C)c1
15,77,C=Cc1ccc(-c2n[nH]c3ccc(NS(=O)(=O)c4ccccc4S(C)(=O)=O)cc23)cc1
16,81,O=S(=O)(Nc1ccc2[nH]nc(-c3ccccc3)c2c1)c1ccccc1F
17,65,O=S(=O)(Nc1ccc2[nH]nc(-c3ccccc3)c2c1)c1ccc(Cl)s1
18,96,CCCNC(=O)c1n[nH]c2ccc(NS(=O)(=O)c3ccccc3S(C)(=O)=O)cc12
19,80,CS(=O)(=O)c1ccccc1S(=O)(=O)Nc1ccc2[nH]nc(-c3ccoc3)c2c1
20,23,CS(=O)(=O)c1ccccc1S(=O)(=O)Nc1ccc2[nH]nc(-c3ccc(Cl)cc3Cl)c2c1
21,82,CS(=O)(=O)c1ccccc1S(=O)(=O)Nc1ccc2[nH]nc(Sc3ccccc3)c2c1
22,50,CC(C)c1cc(C(C)C)c(S(=O)(=O)Nc2ccc3[nH]nc(-c4ccccc4)c3c2)c(C(C)C)c1
23,87,CS(=O)(=O)c1ccccc1S(=O)(=O)Nc1ccc2[nH]nc(-c3ccncc3)c2c1

row,inhibition [%],SMILES
1,56,O=S(=O)(Nc1ccc2[nH]nc(-c3ccccc3)c2c1)c1ccc(F)cc1
2,96,CS(=O)(=O)c1ccccc1S(=O)(=O)Nc1ccc2[nH]nc(-c3ccc(Cl)cc3)c2c1
3,100,CS(=O)(=O)c1ccccc1S(=O)(=O)Nc1ccc2[nH]nc(Nc3ccccc3)c2c1
4,75,N#Cc1cccc(S(=O)(=O)Nc2ccc3[nH]nc(-c4ccccc4)c3c2)c1
5,69,N#Cc1ccccc1S(=O)(=O)Nc1ccc2[nH]nc(-c3ccccc3)c2c1
6,41,CS(=O)(=O)c1ccccc1S(=O)(=O)Nc1ccc2[nH]nc(-c3ccc(-c4ccccc4)cc3)c2c1
7,0,CC(C)(C)c1ccc(-c2n[nH]c3ccc(NS(=O)(=O)c4ccccc4S(C)(=O)=O)cc23)cc1
8,19,CSc1ccccc1-c1n[nH]c2ccc(NS(=O)(=O)c3ccccc3S(C)(=O)=O)cc12
9,95,CS(=O)(=O)c1ccccc1S(=O)(=O)Nc1ccc2[nH]nc(NC(=O)c3ccccc3)c2c1
10,74,CS(=O)(=O)c1ccccc1S(=O)(=O)Nc1ccc2[nH]nc(-c3cc(F)cc(F)c3)c2c1
11,51,COc1ccc(OC)c(S(=O)(=O)Nc2ccc3[nH]nc(-c4ccccc4)c3c2)c1
12,76,CS(=O)(=O)c1ccccc1S(=O)(=O)Nc1ccc2[nH]nc(-c3ccc4c(c3)OCO4)c2c1
13,71,Cc1cccc(-c2n[nH]c3ccc(NS(=O)(=O)c4ccccc4S(C)(=O)=O)cc23)c1
14,76,COc1ccc(-c2n[nH]c3ccc(NS(=O)(=O)c4ccccc4S(C)(=O)=O)cc23)cc1OC
15,83,CS(=O)(=O)c1ccccc1S(=O)(=O)Nc1ccc2[nH]nc(-c3ccc(C(F)(F)F)cc3)c2c1
16,65,CCc1ccc(-c2n[nH]c3ccc(NS(=O)(=O)c4ccccc4S(C)(=O)=O)cc23)cc1
17,73,CC(=O)Nc1ccc(S(=O)(=O)Nc2ccc3[nH]nc(-c4ccccc4)c3c2)cc1
18,99,O=S(=O)(Nc1ccc2[nH]nc(-c3cc4ccccc4[nH]3)c2c1)c1cccc(F)c1
19,90,CS(=O)(=O)c1ccccc1S(=O)(=O)Nc1ccc2[nH]nc(C#Cc3ccccc3)c2c1
20,50,COc1ccccc1-c1n[nH]c2ccc(NS(=O)(=O)c3ccccc3S(C)(=O)=O)cc12
21,93,CS(=O)(=O)c1ccccc1S(=O)(=O)Nc1ccc2[nH]nc(-c3cc4ccccc4o3)c2c1
22,90,O=S(=O)(Nc1ccc2[nH]nc(-c3ccccc3)c2c1)c1cccc2ccccc12
23,12,Nc1n[nH]c2ccc(NS(=O)(=O)c3c(F)cccc3F)cc12

row,inhibition [%],SMILES
1,73,CS(=O)(=O)c1ccccc1S(=O)(=O)Nc1ccc2[nH]nc(-c3ccc4[nH]ccc4c3)c2c1
2,64,COC(=O)c1cccc(-c2n[nH]c3ccc(NS(=O)(=O)c4ccccc4S(C)(=O)=O)cc23)c1
3,84,CN(C)c1cccc2c(S(=O)(=O)Nc3ccc4[nH]nc(-c5ccccc5)c4c3)cccc12
4,53,CN(C)c1c(F)c(F)c(S(=O)(=O)Nc2ccc3[nH]nc(-c4cc5ccccc5[nH]4)c3c2)c(F)c1F
5,81,CN(C)c1ccc(-c2n[nH]c3ccc(NS(=O)(=O)c4ccccc4S(C)(=O)=O)cc23)cc1
6,99,CS(=O)(=O)c1ccccc1S(=O)(=O)Nc1ccc2[nH]nc(-c3ccc[nH]3)c2c1
7,51,CNc1n[nH]c2ccc(NS(=O)(=O)c3ccccc3S(C)(=O)=O)cc12
8,50,CS(=O)(=O)c1ccccc1S(=O)(=O)Nc1ccc2[nH]nc(-c3ccccc3N)c2c1
9,96,CS(=O)(=O)c1ccccc1S(=O)(=O)Nc1ccc2[nH]nc(/C=C/c3ccccc3)c2c1
10,7,C[Si](C)(C)C#Cc1cccc(-c2n[nH]c3ccc(NS(=O)(=O)c4ccccc4S(C)(=O)=O)cc23)c1
11,52,CS(=O)(=O)c1ccccc1S(=O)(=O)Nc1ccc2[nH]nc(-c3ccccc3Cl)c2c1
12,66,Cc1cc(-c2n[nH]c3ccc(NS(=O)(=O)c4ccccc4S(C)(=O)=O)cc23)ccc1F
13,24,CC(C)c1ccc(-c2n[nH]c3ccc(NS(=O)(=O)c4ccccc4S(C)(=O)=O)cc23)cc1
14,72,Cc1cccc(S(=O)(=O)Nc2ccc3[nH]nc(-c4ccccc4)c3c2)c1
15,27,CS(=O)(=O)c1ccccc1S(=O)(=O)Nc1ccc2[nH]nc(-c3ccccc3-c3ccccc3)c2c1
16,21,COc1ccc(-c2n[nH]c3ccc(NS(=O)(=O)c4ccccc4S(C)(=O)=O)cc23)c(OC)c1OC
17,30,CC1(C)[C@H]2CC[C@]1(CS(=O)(=O)Nc1ccc3[nH]nc(-c4ccccc4)c3c1)C(=O)C2
18,13,O=S(=O)(Nc1ccc2[nH]nc(-c3ccccc3)c2c1)C1CCNCC1
19,50,CS(=O)(=O)c1ccccc1S(=O)(=O)Nc1ccc2[nH]nc(-c3cccc(F)c3F)c2c1
20,40,O=C(NCc1ccc(S(=O)(=O)Nc2ccc3[nH]nc(-c4ccccc4)c3c2)s1)c1ccccc1
21,45,CS(=O)(=O)c1ccccc1S(=O)(=O)Nc1ccc2[nH]nc(-c3cc(Br)cc(Br)c3)c2c1
22,81,O=S(=O)(Nc1ccc2[nH]nc(-c3ccccc3)c2c1)c1ccccc1C(F)(F)F
23,90,CS(=O)(=O)c1ccccc1S(=O)(=O)Nc1ccc2[nH]nc(-c3cccc(C#N)c3)c2c1

row,inhibition [%],SMILES
1,56,CC(=O)c1ccc(-c2n[nH]c3ccc(NS(=O)(=O)c4ccccc4S(C)(=O)=O)cc23)cc1
2,20,CN(C)c1cccc2c(S(=O)(=O)Nc3cccc(-c4n[nH]c5ccc(NS(=O)(=O)c6ccccc6S(C)(=O)=O)cc45)c3)cccc12
3,58,Nc1cc(Cl)cc(Cl)c1S(=O)(=O)Nc1ccc2[nH]nc(-c3ccccc3)c2c1
4,67,COc1cccc(-c2n[nH]c3ccc(NS(=O)(=O)c4ccccc4S(C)(=O)=O)cc23)c1
5,99,CS(=O)(=O)c1ccccc1S(=O)(=O)Nc1ccc2[nH]nc(-c3nc4ccccc4[nH]3)c2c1
6,69,CS(=O)(=O)c1ccccc1S(=O)(=O)Nc1ccc2[nH]nc(-c3cccc(F)c3)c2c1
7,28,CS(=O)(=O)c1ccccc1S(=O)(=O)Nc1ccc2[nH]nc(-c3cc(C(F)(F)F)cc(C(F)(F)F)c3)c2c1
8,20,CS(=O)(=O)c1ccccc1S(=O)(=O)Nc1ccc2[nH]nc(-c3ccc(Oc4ccccc4)cc3)c2c1
9,86,CS(=O)(=O)c1ccccc1S(=O)(=O)Nc1ccc2[nH]nc(-c3ccc(C#N)cc3)c2c1
10,73,CS(=O)(=O)c1ccccc1S(=O)(=O)Nc1ccc2[nH]nc(-c3cccc(Br)c3)c2c1
11,61,CS(=O)(=O)c1ccccc1S(=O)(=O)Nc1ccc2[nH]nc(-c3ccccc3F)c2c1
12,78,Cc1ccc(-c2n[nH]c3ccc(NS(=O)(=O)c4ccccc4S(C)(=O)=O)cc23)cc1N
13,94,O=S(=O)(Nc1ccc2[nH]nc(-c3cc4ccccc4[nH]3)c2c1)c1ccccc1OC(F)(F)F
14,72,Cc1cc(C)cc(-c2n[nH]c3ccc(NS(=O)(=O)c4ccccc4S(C)(=O)=O)cc23)c1
15,61,CS(=O)(=O)c1ccccc1S(=O)(=O)Nc1ccc2[nH]nc(-c3ccc(OC(F)(F)F)cc3)c2c1
16,13,CS(=O)(=O)c1ccccc1S(=O)(=O)Nc1ccc2[nH]nc(-c3cccc4c3oc3ccccc34)c2c1
17,95,CS(=O)(=O)c1ccccc1S(=O)(=O)Nc1ccc2[nH]nc(/C=C/c3ccc(F)cc3)c2c1
18,83,CS(=O)(=O)c1ccccc1S(=O)(=O)Nc1ccc2[nH]nc(-c3ccc(F)cc3F)c2c1
19,66,Cc1ccc(-c2n[nH]c3ccc(NS(=O)(=O)c4ccccc4S(C)(=O)=O)cc23)cc1
20,82,O=C(Nc1n[nH]c2ccc(NS(=O)(=O)c3cc(F)cc(F)c3)cc12)c1ccccc1
